Among the test systems are DLD-1 colon; DMS 114 small cell lung; IGROV1 ovarian; KM20L2 colon; LXFL 529 NSCLC; M19-MEL melanoma; MOLT-4 leukemia; NCI-H522 lung; SNB-78 CNS; XF 498 CNS; DMS 273 small cell lung; HOP-18 NSCLC; MDA-MB-435; RXF-631 renal.
What all share (test): growth of human tumour cells (NCI), 48 h

The structures appear in SMILES notation.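 Compound exposure: 48 hours, 5 concentrations, 96-well plates. Here, GI50 denotes the concentration required for 50% inhibition of growth. TGI is the concentration that stops growth completely.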 Where a SMILES comes first, the peptide text is derived from it. The star is where a group is joined. Cbz = O=C(OCc1ccccc1)*; Boc = CC(C)(C)OC(=O)*; OBn = c1ccc(CO*)cc1 Some results are limits rather than exact numbers.

For the molecule `N=C1SCCS1`, the TGI in the assay on DLD-1 colon, with DMS 114 small cell lung, with IGROV1 ovarian, in the assay with KM20L2 colon, with LXFL 529 NSCLC and in the assay with M19-MEL melanoma was over 100 µM each time. Moreover, the TGI with MOLT-4 leukemia, in the assay with NCI-H522 lung, with SNB-78 CNS and in the assay on XF 498 CNS was over 100 µM each time.
Turning to `NC(N)=NCCCS(=O)(=O)Nc1ccc(Nc2c3ccccc3nc3cc([N+](=O)[O-])ccc23)cc1`, the TGI in the assay on DLD-1 colon is over 93.4 µM; with DMS 114 small cell lung it was 28.8 µM; with DMS 273 small cell lung it was 37.2 µM; with HOP-18 NSCLC, 58.7 µM; in the assay with IGROV1 ovarian, 79.5 µM; with KM20L2 colon it was over 76.2 µM. For the same molecule, the TGI in the assay with LXFL 529 NSCLC is 29.9 µM; in the assay with M19-MEL melanoma, 24.1 µM; in the assay on MDA-MB-435, over 100 µM; with MOLT-4 leukemia it was 43.6 µM; in the assay with NCI-H522 lung, 61 µM; with RXF-631 renal, over 100 µM. The TGI with SNB-78 CNS was over 63.5 µM; in the assay with XF 498 CNS, 27.9 µM.
Regarding `CC[n+]1c(/C=C/c2ccc(N(CCCl)CCCl)cc2)ccc2cc(Br)ccc21`, the TGI in the assay with DLD-1 colon was found to be 16.1 µM; in the assay with DMS 114 small cell lung, 15.2 µM; in the assay on HOP-18 NSCLC, 19.6 µM; in the assay with IGROV1 ovarian it was 18.4 µM; in the assay with KM20L2 colon it was 11.9 µM; with LXFL 529 NSCLC, 1.99 µM. Moreover, the TGI in the assay on NCI-H522 lung was determined as 4.66 µM; in the assay on SNB-78 CNS it was 15.4 µM; with XF 498 CNS, 1.18 µM. Moreover, the values for the GI50 in the assay with M19-MEL melanoma and in the assay on MOLT-4 leukemia were 134 µM and 109 µM, respectively.
Regarding `C=C1C(=O)OC2C3C(=C)[C@@H](OC(C)=O)CC3C(C)=CC(OC(=O)C(C)(O)C(C)OC(C)=O)[C@@H]12` (some centres not stated), the TGI in the assay with IGROV1 ovarian was 21.3 µM; in the assay with MDA-MB-435, 28.3 µM; in the assay with MOLT-4 leukemia, over 100 µM; with NCI-H522 lung, 3.21 µM.
As to `O=C1c2cc([N+](=O)[O-])cnc2S(=O)(=O)N1c1ccc(Oc2ccccc2)cc1`, the TGI in the assay with IGROV1 ovarian, with MDA-MB-435, with MOLT-4 leukemia and in the assay with NCI-H522 lung was over 100 µM in each case.
In the case of `O=C1C2=Cc3ccccc3CCN2c2ccc([N+](=O)[O-])cc21`, the TGI with IGROV1 ovarian, with MDA-MB-435, in the assay on MOLT-4 leukemia and with NCI-H522 lung was over 100 µM in each case.
On to `CC1C2CC(CC2=O)C1(C)C` (configuration not stated), for which the TGI with IGROV1 ovarian, with MDA-MB-435, in the assay with MOLT-4 leukemia and in the assay with NCI-H522 lung was over 100 µM in each case.
On to `COc1ccc2[nH]c3c(c2c1)CCc1ccccc1-3`, for which the TGI in the assay with IGROV1 ovarian is over 100 µM; in the assay on MDA-MB-435, over 100 µM; in the assay with MOLT-4 leukemia it was over 100 µM; with NCI-H522 lung, 79.7 µM.
For `CC1(c2nc3ccccc3[nH]2)CCC(CO)C(C)(C)O1` (configuration not stated), the TGI with IGROV1 ovarian, in the assay on MDA-MB-435, with MOLT-4 leukemia and in the assay with NCI-H522 lung was over 100 µM each time.
For `Cc1cc2c(cc1-c1cc3c(cc1C)C(C(C)C)=C(O)C(=O)/C3=C\Nc1cccc3c(N)cccc13)/C(=C/Nc1cccc3c(N)cccc13)C(=O)C(O)=C2C(C)C`, the TGI with IGROV1 ovarian, in the assay on MDA-MB-435, in the assay on MOLT-4 leukemia and with NCI-H522 lung was over 100 µM in each case.
With `Nc1nc(Cl)c(N)c(NCC2(CO)CC(O)C2)n1` (configuration not stated), the TGI in the assay with IGROV1 ovarian, in the assay with MDA-MB-435, in the assay on MOLT-4 leukemia and in the assay with NCI-H522 lung was over 100 µM each time.
Take `CCOC(=O)c1cc(NC(=O)c2ccccc2)c(=O)n2c(cc3c(Cl)cccc32)c1O`: the TGI in the assay on IGROV1 ovarian, with MDA-MB-435, in the assay on MOLT-4 leukemia and in the assay with NCI-H522 lung was over 100 µM each time.
In the case of `O=C(c1no[n+]([O-])c1C(=O)c1csc2ccccc12)c1csc2ccccc12`, the TGI came out at 5.69 µM in the assay on IGROV1 ovarian, 21.5 µM in the assay with MDA-MB-435, 3.17 µM in the assay with MOLT-4 leukemia and 0.843 µM in the assay on NCI-H522 lung.
On to `COc1ccc(C(c2ccccc2)N2C(=O)CCC2C(=O)O)cc1OC` (configuration not stated), for which the TGI in the assay on IGROV1 ovarian, with MDA-MB-435, in the assay with MOLT-4 leukemia and in the assay on NCI-H522 lung was over 100 µM throughout.
For the molecule `O=Cc1cc(O)ccc1Br`, the TGI in the assay with IGROV1 ovarian is over 100 µM; in the assay on MDA-MB-435, 9.77 µM; in the assay on MOLT-4 leukemia, 43.8 µM; in the assay on NCI-H522 lung, over 94.3 µM.
For `CC(C)c1cc(C(C)C)c(P2(=O)CC3C(Cl)(Cl)C3(C)C2)c(C(C)C)c1` (configuration not stated), the TGI with IGROV1 ovarian is 29.5 µM; in the assay on MDA-MB-435 it was 26.8 µM; in the assay with MOLT-4 leukemia, over 23.1 µM; in the assay with NCI-H522 lung, 4 µM.
For the molecule `COc1ccc(N=C/C=C/C(=C/COC(C)=O)OC(C)=O)cc1`, the TGI in the assay on IGROV1 ovarian was 45.1 µM; with MDA-MB-435, over 100 µM; in the assay with MOLT-4 leukemia it was over 100 µM; in the assay with NCI-H522 lung it was 30.4 µM.
As for `CN(N=O)C(N)=NC(=O)c1ccccc1`, the TGI in the assay on IGROV1 ovarian, in the assay on MDA-MB-435, in the assay on MOLT-4 leukemia and in the assay with NCI-H522 lung was over 100 µM throughout.
As to `O=C1C(c2c(O)n(-c3ccccc3)c3ccccc23)=Nc2ccccc21`, the TGI with IGROV1 ovarian, in the assay with MDA-MB-435, with MOLT-4 leukemia and in the assay with NCI-H522 lung was over 100 µM each time.
As to `CC(=O)Nc1ccccc1S(=O)(=O)c1c(-c2c(C)c(Cl)c(C)c(Cl)c2C)noc1C`, the TGI in the assay on IGROV1 ovarian, with MDA-MB-435, in the assay on MOLT-4 leukemia and in the assay on NCI-H522 lung was over 100 µM throughout.
Take `CC(=O)N(CCc1ccccc1)C(C)(C#N)c1ccccc1` (configuration not stated): the TGI in the assay on IGROV1 ovarian, in the assay with MDA-MB-435, with MOLT-4 leukemia and in the assay on NCI-H522 lung was over 100 µM in each case.
For `O=C1Nc2ccccc2/C1=C\c1c(Cl)[nH]c2ccccc12`, the TGI with IGROV1 ovarian turned out to be 1.35 µM; in the assay on MDA-MB-435, 0.417 µM; in the assay with MOLT-4 leukemia, 12.6 µM; in the assay on NCI-H522 lung it was 3.54 µM.
Consider `COC(=O)C1CCCCCCCCCCC12SCCCS2` (configuration not stated), for which the TGI with IGROV1 ovarian amounted to 39.1 µM; with MDA-MB-435, 36.2 µM; in the assay with MOLT-4 leukemia, 45 µM; with NCI-H522 lung, 43.5 µM.
With `COC(=O)C(CCCCNC(=O)OCc1ccccc1)NC(=O)C(CCC(=O)OCc1ccccc1)NC(=O)OC(C)(C)C` (configuration not stated) (Boc-Glu(OBn)-Lys(Cbz)-OMe; configuration not given here), the TGI with IGROV1 ovarian, in the assay with MDA-MB-435, in the assay with MOLT-4 leukemia and in the assay with NCI-H522 lung was over 100 µM in each case.
As to `CCCN=C1S/C(=C/c2ccc(OC)c(OC)c2)C(=O)N1c1ccccc1`, the TGI in the assay with IGROV1 ovarian, in the assay on MDA-MB-435, in the assay with MOLT-4 leukemia and with NCI-H522 lung was over 100 µM throughout.
For `COC(=O)[C@@H](COC(=O)/C=C/c1ccc(OC(C)=O)c(OC(C)=O)c1)NC(=O)/C=C/c1ccc(OC(C)=O)c(OC(C)=O)c1`, the TGI is over 100 µM in the assay with IGROV1 ovarian, over 100 µM in the assay with MDA-MB-435, over 100 µM in the assay with MOLT-4 leukemia and 35.1 µM with NCI-H522 lung.

Values taken from PubChem BioAssay (NCI).
